According to ChEMBL document CHEMBL1149513, “Arylpropionylpiperazines as antagonists of the human melanocortin-4 receptor” (Bioorg Med Chem Lett, 2006):

Tests used:
Melanocortin receptor 4 [1] = target: T1, Melanocortin receptor 4 (Homo sapiens, UniProt P32245); assay: Displacement of [125I]NDP-MSH from human MC4R expressed in HEK293 cells; type: cell-based
[2] = target: Melanocyte-stimulating hormone receptor (Homo sapiens) (UniProt Q01726); assay: Inhibition of [125I]NDP-MSH binding to human MC1R expressed in HEK293 cells; type: cell-based; conditions: concentration not given here
Melanocyte-stimulating hormone receptor (Homo sapiens), sequence (Q01726 whole entry, looked up): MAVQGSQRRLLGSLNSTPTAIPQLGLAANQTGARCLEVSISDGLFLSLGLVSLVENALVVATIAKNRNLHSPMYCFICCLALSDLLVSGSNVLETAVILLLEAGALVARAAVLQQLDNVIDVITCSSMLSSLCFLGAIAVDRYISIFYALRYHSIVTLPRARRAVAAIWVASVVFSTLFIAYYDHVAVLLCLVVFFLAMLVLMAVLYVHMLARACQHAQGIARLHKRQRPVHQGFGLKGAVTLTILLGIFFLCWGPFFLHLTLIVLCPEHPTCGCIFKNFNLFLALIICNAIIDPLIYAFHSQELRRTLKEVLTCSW

Melanocortin receptor 3 = Melanocortin receptor 3 (Homo sapiens, UniProt P41968); assay: Displacement of [125I]NDP-MSH from human MC3R expressed in HEK293 cells; type: cell-based
Melanocortin receptor 3, sequence (P41968 whole entry): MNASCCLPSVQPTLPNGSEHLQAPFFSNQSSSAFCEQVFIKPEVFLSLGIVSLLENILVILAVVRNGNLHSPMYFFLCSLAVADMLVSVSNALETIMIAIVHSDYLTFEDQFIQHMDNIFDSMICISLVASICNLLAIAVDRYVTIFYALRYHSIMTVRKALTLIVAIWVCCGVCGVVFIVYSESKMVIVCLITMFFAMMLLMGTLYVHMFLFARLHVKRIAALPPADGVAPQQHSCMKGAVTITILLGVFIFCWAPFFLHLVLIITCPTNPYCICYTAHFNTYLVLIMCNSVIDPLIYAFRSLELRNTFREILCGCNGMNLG

Melanocortin receptor 5 = Melanocortin receptor 5 (Homo sapiens, UniProt P33032); assay: Displacement of [125I]NDP-MSH from human MC5R expressed in HEK293 cells; type: cell-based
Melanocortin receptor 5, sequence (P33032 whole entry): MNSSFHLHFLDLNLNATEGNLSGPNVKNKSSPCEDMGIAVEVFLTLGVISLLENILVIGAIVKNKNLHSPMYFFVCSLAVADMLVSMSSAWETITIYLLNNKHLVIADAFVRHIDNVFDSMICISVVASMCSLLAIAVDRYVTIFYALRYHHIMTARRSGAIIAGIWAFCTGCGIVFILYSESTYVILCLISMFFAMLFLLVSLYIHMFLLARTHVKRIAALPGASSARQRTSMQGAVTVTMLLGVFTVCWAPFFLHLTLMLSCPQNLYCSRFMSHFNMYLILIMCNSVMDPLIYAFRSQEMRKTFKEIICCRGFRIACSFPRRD

[3] = Volume of distribution in mouse at 5 mg/kg, iv; type: ADME, organism-based; parameters: dose 5 mg/kg, route intravenous; conditions: in vivo, read-out: Vdss
[4] = Bioavailability in mouse at 10 mg/kg, po; type: ADME, organism-based; conditions: in vivo
[5] = Lipophilicity, Log D of the compound; type: physicochemical; conditions: octanol/water
Mus musculus [6] = assay: AUC in mouse at 10 mg/kg, po; type: ADME, organism-based, Plasma; parameters: dose 10 mg/kg, route oral; conditions: in vivo
[7] = Cmax in mouse at 10 mg/kg, po; type: ADME, organism-based; parameters: dose 10 mg/kg, route oral; conditions: in vivo
[8] = Tmax in mouse at 10 mg/kg, po; type: ADME, organism-based; parameters: dose 10 mg/kg, route oral; conditions: in vivo
[9] = Drug level in mouse brain after 1 hr at 5 mg/kg, iv; type: ADME, organism-based; parameters: dose 5 mg/kg, route intravenous; conditions: read-out: Drug uptake
[10] = Drug level in mouse brain after 4 hrs at 5 mg/kg, iv; type: ADME, organism-based; parameters: dose 5 mg/kg, route intravenous; conditions: read-out: Drug uptake
[11] = Ratio of drug level in brain against plasma in mouse after 4 hrs at 5 mg/kg, iv; type: ADME, organism-based; parameters: dose 5 mg/kg, route intravenous; conditions: read-out: BPR
[12] = Half life in mouse at 5 mg/kg, iv; type: ADME, organism-based; parameters: dose 5 mg/kg, route intravenous; conditions: in vivo
[13] = Ratio of drug level in brain against plasma in mouse after 1 hr at 5 mg/kg, iv; type: ADME, organism-based; parameters: dose 5 mg/kg, route intravenous; conditions: read-out: BPR
[14] = Clearance in mouse at 5 mg/kg, iv; type: ADME, organism-based; parameters: dose 5 mg/kg, route intravenous; conditions: in vivo
Mus musculus [15] = assay: AUC in mouse at 5 mg/kg, iv; type: ADME, organism-based, Plasma; parameters: dose 5 mg/kg, route intravenous; conditions: in vivo
Melanocortin receptor 4 [16] = target: T1, Melanocortin receptor 4; assay: Activity at MC4R assessed as inhibition of alpha-MSH-stimulated cAMP production; type: functional
[17] = target: Melanocortin receptor (M4 and M5) (Homo sapiens) (UniProt P32245+P33032); assay: Selectivity for MC4R over MC5R; type: protein assay
Melanocortin receptor (M4 and M5) (Homo sapiens), sequence (P32245 whole entry, looked up): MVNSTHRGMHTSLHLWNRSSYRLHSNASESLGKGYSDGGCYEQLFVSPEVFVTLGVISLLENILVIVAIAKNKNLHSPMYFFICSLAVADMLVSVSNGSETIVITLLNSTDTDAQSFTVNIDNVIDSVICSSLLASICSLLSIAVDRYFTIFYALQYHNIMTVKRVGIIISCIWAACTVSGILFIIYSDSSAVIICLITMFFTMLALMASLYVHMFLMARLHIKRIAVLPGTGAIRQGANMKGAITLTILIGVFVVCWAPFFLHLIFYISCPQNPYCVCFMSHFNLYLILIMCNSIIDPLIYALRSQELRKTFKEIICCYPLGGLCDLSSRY
Melanocortin receptor (M4 and M5) (Homo sapiens), sequence (P33032 whole entry, looked up): as the sequence (P33032 whole entry) above

T1 sequence (P32245 whole entry): as the sequence (P32245 whole entry, looked up) above

Row | Compound | Ki (Melanocortin receptor 4 [1]) | other results
1 | CC(C)C[C@H](N)c1cc(C(F)(F)F)ccc1N1CCN(C(=O)CCc2cccc(C(F)(F)F)c2)CC1 | 2200 nM | 
2 | CC(C)C[C@H](N)c1cc(C(F)(F)F)ccc1N1CCN(C(=O)CCc2c(Cl)cccc2Cl)CC1 | 2600 nM | 
3 | CCC(C)[C@H](NS(C)(=O)=O)c1cc(C(F)(F)F)ccc1N1CCN(C(=O)CCc2ccc(Cl)cc2Cl)CC1 (stereo not given in full) | 1800 nM | 
4 | CCC(C)[C@H](NC(=O)CN)c1cc(C(F)(F)F)ccc1N1CCN(C(=O)CCc2ccc(Cl)cc2Cl)CC1 (stereo not given in full) | 18 nM | 
5 | NC(COCc1ccccc1)c1cc(F)ccc1N1CCN(C(=O)CCc2ccc(Cl)cc2Cl)CC1 (stereo not given) | 1000 nM | 
6 | NCCNC(COCc1ccccc1)c1cc(F)ccc1N1CCN(C(=O)CCc2ccc(Cl)cc2Cl)CC1 (stereo not given) | 400 nM | 
7 | CCC(C)[C@H](NC[C@H](C)N)c1cc(C(F)(F)F)ccc1N1CCN(C(=O)CCc2ccc(Cl)cc2Cl)CC1 (stereo not given in full) | 89 nM | 
8 | CCN[C@@H](CC(C)C)c1cc(C(F)(F)F)ccc1N1CCN(C(=O)CCc2ccc(Cl)cc2Cl)CC1 | 170 nM | 
9 | CC(C)C[C@H](N)c1cc(C(F)(F)F)ccc1N1CCN(C(=O)CCc2ccccc2Cl)CC1 | 1700 nM | 
10 | CCC(C)[C@H](NCC1CCCO1)c1cc(C(F)(F)F)ccc1N1CCN(C(=O)CCc2ccc(Cl)cc2Cl)CC1 (stereo not given in full) | 780 nM | 
11 | CC(C)C[C@H](N)c1cc(C(F)(F)F)ccc1N1CCN(C(=O)CCc2ccccc2F)CC1 | 2800 nM | 
12 | CC(C)C[C@H](N)c1cc(C(F)(F)F)ccc1N1CCN(C(=O)CCc2csc3ccccc23)CC1 | 2300 nM | 
13 | CC(N)c1cc(C(F)(F)F)ccc1N1CCN(C(=O)CCc2ccc(Cl)cc2Cl)CC1 (stereo not given) | 490 nM | 
14 | CCC(C)[C@H](N)c1cc(C(F)(F)F)ccc1N1CCN(C(=O)CCc2ccc(OC)c(OC)c2Cl)CC1 (stereo not given in full) | 2500 nM | 
15 | CCC(C)[C@H](NCCN)c1cc(C(F)(F)F)ccc1N1CCN(C(=O)CCc2ccc(Cl)cc2Cl)CC1 (stereo not given in full) | 56 nM | 
16 | NCCC(=O)NC(COCc1ccccc1)c1cc(F)ccc1N1CCN(C(=O)CCc2ccc(Cl)cc2Cl)CC1 (stereo not given) | 210 nM | 
17 | CCCCC(N)c1cc(C(F)(F)F)ccc1N1CCN(C(=O)CCc2ccc(Cl)cc2Cl)CC1 (stereo not given) | 190 nM | 
18 | CCC(C)[C@H](NC(C)=O)c1cc(C(F)(F)F)ccc1N1CCN(C(=O)CCc2ccc(Cl)cc2Cl)CC1 (stereo not given in full) | 360 nM | 
19 | CCC(C)[C@H](NCc1ccccc1F)c1cc(C(F)(F)F)ccc1N1CCN(C(=O)CCc2ccc(Cl)cc2Cl)CC1 (stereo not given in full) | > 10000 nM | 

Row | Compound | Ki (Melanocortin receptor 4 [1]) | other results
20 | CCC(C)C(N)c1cc(C(F)(F)F)ccc1N1CCN(C(=O)CCc2ccc(Cl)cc2Cl)CC1 (stereo not given) | 160 nM | 
21 | CC(C)C[C@H](N)c1cc(C(F)(F)F)ccc1N1CCN(C(=O)CCc2ccccc2O)CC1 | 3300 nM | 
22 | CCC(C)CN[C@H](c1cc(C(F)(F)F)ccc1N1CCN(C(=O)CCc2ccc(Cl)cc2Cl)CC1)C(C)CC (stereo not given in full) | 2800 nM | 
23 | CC(C)C[C@H](N)c1cc(C(F)(F)F)ccc1N1CCN(C(=O)CCc2ccc(Cl)cc2Cl)CC1 | 74 nM | 
24 | Cc1[nH]c2ccccc2c1CCC(=O)N1CCN(c2ccc(C(F)(F)F)cc2[C@@H](N)CC(C)C)CC1 | 1600 nM | 
25 | CC(C)C[C@H](N)c1cc(C(F)(F)F)ccc1N1CCN(C(=O)CCc2cn(C)c3ccccc23)CC1 | 3000 nM | 
26 | CCC(C)[C@H](NCCc1ccccc1)c1cc(C(F)(F)F)ccc1N1CCN(C(=O)CCc2ccc(Cl)cc2Cl)CC1 (stereo not given in full) | 2600 nM | 
27 | Cc1cccc(CCC(=O)N2CCN(c3ccc(C(F)(F)F)cc3[C@@H](N)CC(C)C)CC2)c1 | 2100 nM | 
28 | CC(C)C[C@H](N)c1cccc(F)c1N1CCN(C(=O)CCc2ccc(Cl)cc2Cl)CC1 | 110 nM | inhibition [2]: 21%; Ki (Melanocortin receptor 3): 1400 nM; Ki (Melanocortin receptor 5): 1200 nM
29 | CCC(C)[C@H](NCc1ccccc1)c1cc(C(F)(F)F)ccc1N1CCN(C(=O)CCc2ccc(Cl)cc2Cl)CC1 (stereo not given in full) | 5900 nM | 
30 | CC(C)C[C@H](N)c1cc(C(F)(F)F)ccc1N1CCN(C(=O)CCc2ccc(O)cc2)CC1 | > 10000 nM | 
31 | COc1ccc(CCC(=O)N2CCN(c3ccc(C(F)(F)F)cc3[C@@H](N)CC(C)C)CC2)cc1OC | 4300 nM | 
32 | CC[C@H](C)C(N)c1cc(C(F)(F)F)ccc1N1CCN(C(=O)CCc2ccc(Cl)cc2Cl)CC1 (stereo not given in full) | 75 nM | 
33 | CN[C@@H](CC(C)C)c1cc(C(F)(F)F)ccc1N1CCN(C(=O)CCc2ccc(Cl)cc2Cl)CC1 | 1900 nM | 
34 | CC(C)C[C@H](N)c1cc(C(F)(F)F)ccc1N1CCN(C(=O)CCc2cccs2)CC1 | 4600 nM | 
35 | CC(C)C(N)c1cc(C(F)(F)F)ccc1N1CCN(C(=O)CCc2ccc(Cl)cc2Cl)CC1 (stereo not given) | 140 nM | 
36 | CC(C)C[C@H](N)c1cc(F)ccc1N1CCN(C(=O)CCc2ccc(Cl)cc2Cl)CC1 | 94 nM | 
37 | COc1ccc(CCC(=O)N2CCN(c3ccc(C(F)(F)F)cc3[C@@H](N)CC(C)C)CC2)cc1 | 350 nM | 
38 | CCC(C)[C@H](NC(=O)CCN)c1cc(C(F)(F)F)ccc1N1CCN(C(=O)CCc2ccc(Cl)cc2Cl)CC1 (stereo not given in full) | 13 nM | Vd [3]: 1.6 L/kg; bioavailability [4]: 26.1%; logD [5]: 4; AUC (Mus musculus [6]): 12100 ng·h/mL; Cmax [7]: 1170 ng/mL; Tmax [8]: 6 h; concentration at 1 h [9]: 62 ng/g; concentration at 4 h [10]: 70 ng/g; Kp at 4 h [11]: 0.03; half-life [12]: 5.2 h; Kp at 1 h [13]: 0.02; inhibition [2]: 17%; Ki (Melanocortin receptor 3): 800 nM; Ki (Melanocortin receptor 5): 170 nM; clearance [14]: 3.5 mL/min/kg; AUC (Mus musculus [15]): 23100 ng·h/mL; IC50 (Melanocortin receptor 4 [16]): 1100 nM

Row | Compound | Ki (Melanocortin receptor 4 [1]) | other results
39 | CCOCC(NC(=O)CCN)c1cc(F)ccc1N1CCN(C(=O)CCc2ccc(Cl)cc2Cl)CC1 (stereo not given) | 300 nM | 
40 | CCOCC(N)c1cc(F)ccc1N1CCN(C(=O)CCc2ccc(Cl)cc2Cl)CC1 (stereo not given) | 690 nM | 
41 | CCC(C)[C@H](N)c1cc(C(F)(F)F)ccc1N1CCN(C(=O)CCc2ccc(OC)cc2Cl)CC1 (stereo not given in full) | 57 nM | 
42 | CCC(C)[C@H](NC(=O)OC)c1cc(C(F)(F)F)ccc1N1CCN(C(=O)CCc2ccc(Cl)cc2Cl)CC1 (stereo not given in full) | 2400 nM | 
43 | COc1cccc(CCC(=O)N2CCN(c3ccc(C(F)(F)F)cc3[C@@H](N)CC(C)C)CC2)c1 | 4000 nM | 
44 | CC(C)C[C@H](NC(=O)CCN)c1cc(C(F)(F)F)ccc1N1CCN(C(=O)CCc2ccc(Cl)cc2Cl)CC1 | 25 nM | 
45 | CCC(C)[C@H](NCCCN)c1cc(C(F)(F)F)ccc1N1CCN(C(=O)CCc2ccc(Cl)cc2Cl)CC1 (stereo not given in full) | 30 nM | 
46 | COc1ccc(OC)c(CCC(=O)N2CCN(c3ccc(C(F)(F)F)cc3[C@@H](N)CC(C)C)CC2)c1 | 2500 nM | 
47 | CCC(C)[C@H](N)c1cc(C(F)(F)F)ccc1N1CCN(C(=O)CCc2ccc(Cl)cc2)CC1 (stereo not given in full) | 86 nM | 
48 | COc1cc(OC)c(OC)cc1CCC(=O)N1CCN(c2ccc(C(F)(F)F)cc2[C@@H](N)CC(C)C)CC1 | 6100 nM | 
49 | CC(C)C[C@H](NC(=O)CN)c1cc(C(F)(F)F)ccc1N1CCN(C(=O)CCc2ccc(Cl)cc2Cl)CC1 | 19 nM | Vd [3]: 8.8 L/kg; bioavailability [4]: 11.2%; logD [5]: 4.5; AUC (Mus musculus [6]): 687 ng·h/mL; Cmax [7]: 115 ng/mL; Tmax [8]: 2 h; concentration at 1 h [9]: 43 ng/g; concentration at 4 h [10]: 33 ng/g; Kp at 4 h [11]: 0.17; half-life [12]: 3.8 h; Kp at 1 h [13]: 0.08; inhibition [2]: 18%; Ki (Melanocortin receptor 3): 1200 nM; Ki (Melanocortin receptor 5): 500 nM; clearance [14]: 26.9 mL/min/kg; AUC (Mus musculus [15]): 3070 ng·h/mL; IC50 (Melanocortin receptor 4 [16]): 1300 nM; Selectivity ratio [17]: > 25
50 | CC(C)C[C@H](N)c1cc(C(F)(F)F)ccc1N1CCN(C(=O)CCc2ccc(S(C)(=O)=O)cc2)CC1 | 4900 nM | 
51 | CCC(C)[C@H](NC[C@H]1CCCN1)c1cc(C(F)(F)F)ccc1N1CCN(C(=O)CCc2ccc(Cl)cc2Cl)CC1 (stereo not given in full) | 110 nM | 
52 | CC(C)C[C@H](N)c1cc(C(F)(F)F)ccc1N1CCN(C(=O)CCc2ccc3c(c2)OCO3)CC1 | 1500 nM | 
53 | CC(C)C[C@H](N)c1cc(C(F)(F)F)ccc1N1CCN(C(=O)CCc2c[nH]c3ccccc23)CC1 | 640 nM | 
54 | COCCN[C@@H](CC(C)C)c1cc(C(F)(F)F)ccc1N1CCN(C(=O)CCc2ccc(Cl)cc2Cl)CC1 | 620 nM | 
55 | COc1ccccc1CCC(=O)N1CCN(c2ccc(C(F)(F)F)cc2[C@@H](N)CC(C)C)CC1 | 1400 nM | 
56 | CCN[C@H](c1cc(C(F)(F)F)ccc1N1CCN(C(=O)CCc2ccc(Cl)cc2Cl)CC1)C(C)CC (stereo not given in full) | 92 nM | 
57 | CCC(C)[C@H](NC[C@@H]1CCCN1)c1cc(C(F)(F)F)ccc1N1CCN(C(=O)CCc2ccc(Cl)cc2Cl)CC1 (stereo not given in full) | 64 nM | 
